Data from PubChem BioAssay AID248 (DTP/NCI, 2004).
Several values for one entry are separate records, joined by “and”; a condition that tells them apart may be missing. Identical values can stand only once. Toxic doses and inconclusive results are not listed. Cut-off read from the data, not from the text of the source: active = T/C of 150% or more; inactive = T/C below 125%.

System: L1210 leukemia ip in BDF1 mice, survival T/C
Assay: NCI In Vivo Anticancer Drug Screen. Data for tumor model L1210 Leukemia (intraperitoneal) in B6D2F1 (BDF1) mice
Conditions: endpoint: mean survival time, higher = longer survival
Procedure, shortened: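 Transplantable tumor model; survival measured in treated vs vehicle control mice. Value = treated/control.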

[1] = dose: 100.0 mg/kg/injection, schedule: Q04DX003 (ip), vehicle: saline
[2] = dose: 100.0 mg/kg/injection, schedule: Q04DX003 (ip), vehicle: saline with Tween-80
[3] = dose: 200.0 mg/kg/injection, schedule: Q04DX003 (ip), vehicle: saline with Tween-80
[4] = dose: 100.0 mg/kg/injection, schedule: Q01DX001 (ip), vehicle: saline
[5] = dose: 100.0 mg/kg/injection, schedule: Q01DX009 (ip), vehicle: saline with Tween-80
[6] = dose: 200.0 mg/kg/injection, schedule: Q01DX009 (ip), vehicle: saline with Tween-80
[7] = dose: 400.0 mg/kg/injection, schedule: Q01DX009 (ip), vehicle: saline with Tween-80
[8] = dose: 400.0 mg/kg/injection, schedule: Q04DX003 (ip), vehicle: saline with Tween-80
[9] = dose: 200.0 mg/kg/injection, schedule: Q01DX001 (ip), vehicle: saline
[10] = dose: 400.0 mg/kg/injection, schedule: Q01DX001 (ip), vehicle: saline
[11] = dose: 100.0 mg/kg/injection, schedule: Q04DX003 (ip), vehicle: Klucel (hydroxypropylcellulose) (HPC)
[12] = dose: 100.0 mg/kg/injection, schedule: Q04DX002 (ip), vehicle: Klucel (hydroxypropylcellulose) (HPC)
[13] = dose: 200.0 mg/kg/injection, schedule: Q04DX002 (ip), vehicle: Klucel (hydroxypropylcellulose) (HPC)
[14] = dose: 400.0 mg/kg/injection, schedule: Q04DX002 (ip), vehicle: Klucel (hydroxypropylcellulose) (HPC)
[15] = dose: 100.0 mg/kg/injection, schedule: Q04DX002 (ip), vehicle: saline with Tween-80
[16] = dose: 200.0 mg/kg/injection, schedule: Q04DX002 (ip), vehicle: saline with Tween-80
[17] = dose: 400.0 mg/kg/injection, schedule: Q04DX002 (ip), vehicle: saline with Tween-80

Measured: T/C

CN(C)CCCN1CCC2(CC[C@H]3CCCC[C@@H]3C2)CC1
inactive: dose: 9.0 mg/kg/injection, schedule: Q01DX015 (ip), vehicle: saline 91 % of control | dose: 18.0 mg/kg/injection, schedule: Q01DX015 (ip), vehicle: saline 97 % of control | dose: 25.0 mg/kg/injection, schedule: Q01DX009 (ip), vehicle: saline 101 % of control | dose: 25.0 mg/kg/injection, schedule: Q04DX003 (ip), vehicle: saline 90 % of control | dose: 36.0 mg/kg/injection, schedule: Q01DX015 (ip), vehicle: saline 101 % of control | dose: 50.0 mg/kg/injection, schedule: Q01DX009 (ip), vehicle: saline 101 % of control | dose: 50.0 mg/kg/injection, schedule: Q04DX003 (ip), vehicle: saline 93 % of control | dose: 72.0 mg/kg/injection, schedule: Q01DX015 (ip), vehicle: saline 114 % of control | dose: 100.0 mg/kg/injection, schedule: Q01DX009 (ip), vehicle: saline 109 % of control | [1] 104 % of control

CCCCCC(=O)Nc1cccc(O)c1
inactive: [2] 92 % of control | [3] 98 % of control

CC(C)OC(=O)C#CC(=O)O
inactive: [4] 98 % of control

Cc1ccc(C)n1-c1ccc(S(=O)(=O)c2ccc(NC(=O)CCC(=O)O)cc2)cc1
inactive: [5] 93 % of control | [6] 88 % of control | [7] 96 % of control

O=C(CCc1ccc(O)cc1)N/N=C/c1cc(Br)ccc1O
inactive: [5] 97 % of control | [2] 95 % of control | [6] 92 % of control | [3] 96 % of control | [7] 92 % of control | [8] 90 % of control

NCCN(CCN)CCN
inactive: dose: 50.0 mg/kg/injection, schedule: Q01DX001 (ip), vehicle: saline 108 % of control | [4] 96 % of control | [9] 96 % of control | [10] 124 % of control

C=CCc1ccc(OC(=O)Nc2ccc([N+](=O)[O-])cc2OC)c(OC)c1
inactive: dose: 100.0 mg/kg/injection, schedule: Q01DX009 (ip), vehicle: Klucel (hydroxypropylcellulose) (HPC) 96 % of control | dose: 200.0 mg/kg/injection, schedule: Q01DX009 (ip), vehicle: Klucel (hydroxypropylcellulose) (HPC) 93 % of control | dose: 400.0 mg/kg/injection, schedule: Q01DX009 (ip), vehicle: Klucel (hydroxypropylcellulose) (HPC) 96 % of control

C/C=C/C[P+](c1ccccc1)(c1ccccc1)c1ccccc1
inactive: dose: 3.13 mg/kg/injection, schedule: Q01DX009 (ip), vehicle: saline 98 % of control | dose: 6.25 mg/kg/injection, schedule: Q01DX009 (ip), vehicle: saline 110 % of control | dose: 12.5 mg/kg/injection, schedule: Q01DX009 (ip), vehicle: saline with Tween-80 106 % of control | dose: 12.5 mg/kg/injection, schedule: Q01DX009 (ip), vehicle: saline 98 % of control | dose: 15.0 mg/kg/injection, schedule: Q01DX001 (ip), vehicle: saline 101 % of control | dose: 30.0 mg/kg/injection, schedule: Q01DX001 (ip), vehicle: saline 114 % of control

COc1cc(C(=O)N/N=C/N(C)C)cc(OC)c1OC
inactive: dose: 75.0 mg/kg/injection, schedule: Q01DX009 (ip), vehicle: Klucel (hydroxypropylcellulose) (HPC) 109 % of control | [11] 99 % of control | dose: 150.0 mg/kg/injection, schedule: Q01DX009 (ip), vehicle: Klucel (hydroxypropylcellulose) (HPC) 102 % of control | dose: 200.0 mg/kg/injection, schedule: Q04DX003 (ip), vehicle: Klucel (hydroxypropylcellulose) (HPC) 99 % of control | dose: 300.0 mg/kg/injection, schedule: Q01DX009 (ip), vehicle: Klucel (hydroxypropylcellulose) (HPC) 89 % of control | dose: 400.0 mg/kg/injection, schedule: Q04DX003 (ip), vehicle: Klucel (hydroxypropylcellulose) (HPC) 100 % of control

NNC(=O)c1n[nH]c(C2OC(CO)C(O)C2O)c1N (stereo not drawn)
inactive: dose: 100.0 mg/kg/injection, schedule: Q01DX005 (ip), vehicle: saline 100 % of control | dose: 200.0 mg/kg/injection, schedule: Q01DX005 (ip), vehicle: saline 94 % of control

C#CC1(NC(=S)Nc2cccc(OC)c2)CCCCC1
inactive: [12] 94 % of control | [13] 109 % of control | [14] 96 % of control

O=C(OC1CC2CC=CC21)c1ccc([N+](=O)[O-])cc1 (stereo not drawn)
inactive: [2] 96 % of control | [3] 98 % of control | [8] 94 % of control

c1ccc2c(c1)ccc1c(C3CO3)cccc12 (stereo not drawn)
inactive: [15] 101 % of control | [16] 98 % of control | [17] 88 % of control

Cc1ccc(Cl)cc1NC(=O)N(C)C1CCCCC1
inactive: dose: 100.0 mg/kg/injection, schedule: Q01DX001 (ip), vehicle: saline with Tween-80 101 % of control | [5] 94 % of control and 120 % of control | [15] 104 % of control and 106 % of control | [1] 97 % of control | dose: 200.0 mg/kg/injection, schedule: Q01DX001 (ip), vehicle: saline with Tween-80 106 % of control | [6] 96 % of control and 113 % of control | [16] 98 % of control and 109 % of control | dose: 200.0 mg/kg/injection, schedule: Q04DX003 (ip), vehicle: saline 111 % of control | dose: 400.0 mg/kg/injection, schedule: Q01DX001 (ip), vehicle: saline with Tween-80 98 % of control | [7] 100 % of control and 110 % of control | [17] 95 % of control and 112 % of control | dose: 400.0 mg/kg/injection, schedule: Q04DX003 (ip), vehicle: saline 90 % of control

CC1CCc2ccccc2N1C1=NCCO1 (stereo not drawn)
inactive: dose: 19.0 mg/kg/injection, schedule: Q04DX003 (ip), vehicle: saline 97 % of control | dose: 38.0 mg/kg/injection, schedule: Q04DX003 (ip), vehicle: saline 94 % of control | dose: 75.0 mg/kg/injection, schedule: Q01DX001 (ip), vehicle: saline 102 % of control

CC(=O)N(C)c1ccc(NC(=O)Nc2ccc(F)cc2)cc1
inactive: dose: 100.0 mg/kg/injection, schedule: Q01DX001 (ip), vehicle: carboxymethylcellulose (CMC) 97 % of control | dose: 100.0 mg/kg/injection, schedule: Q01DX009 (ip), vehicle: carboxymethylcellulose (CMC) 95 % of control and 103 % of control | dose: 100.0 mg/kg/injection, schedule: Q04DX002 (ip), vehicle: carboxymethylcellulose (CMC) 95 % of control and 97 % of control and 90 % of control | dose: 100.0 mg/kg/injection, schedule: Q04DX003 (ip), vehicle: carboxymethylcellulose (CMC) 104 % of control | dose: 200.0 mg/kg/injection, schedule: Q01DX001 (ip), vehicle: carboxymethylcellulose (CMC) 96 % of control | dose: 200.0 mg/kg/injection, schedule: Q01DX009 (ip), vehicle: carboxymethylcellulose (CMC) 101 % of control and 103 % of control | dose: 200.0 mg/kg/injection, schedule: Q04DX002 (ip), vehicle: carboxymethylcellulose (CMC) 93 % of control and 96 % of control and 87 % of control | dose: 200.0 mg/kg/injection, schedule: Q04DX003 (ip), vehicle: carboxymethylcellulose (CMC) 107 % of control | dose: 400.0 mg/kg/injection, schedule: Q01DX001 (ip), vehicle: carboxymethylcellulose (CMC) 106 % of control | dose: 400.0 mg/kg/injection, schedule: Q01DX009 (ip), vehicle: carboxymethylcellulose (CMC) 95 % of control and 101 % of control | dose: 400.0 mg/kg/injection, schedule: Q04DX002 (ip), vehicle: carboxymethylcellulose (CMC) 97 % of control and 98 % of control and 104 % of control | dose: 400.0 mg/kg/injection, schedule: Q04DX003 (ip), vehicle: carboxymethylcellulose (CMC) 98 % of control

COc1cc(C(C)=O)ccc1O
inactive: [12] 99 % of control | [13] 89 % of control | [14] 89 % of control

CCCCCCCCCCCCSCCC(=O)O
inactive: [4] 98 % of control | [9] 95 % of control | [10] 93 % of control

O=C(N/N=C/c1ccccc1O)c1ccccc1O
inactive: [2] 95 % of control | [3] 92 % of control | [8] 93 % of control

O=C(CNCc1ccccc1)Oc1c(Cl)c(Cl)c(Cl)c(Cl)c1Cl
inactive: dose: 100.0 mg/kg/injection, schedule: Q04DX003 (ip), vehicle: other 94 % of control | dose: 200.0 mg/kg/injection, schedule: Q04DX003 (ip), vehicle: other 93 % of control

CCOC(=O)C1(C(=O)OCC)C(C)CC2Nc3ccccc3C(=O)N21 (stereo not drawn)
inactive: dose: 25.0 mg/kg/injection, schedule: Q04DX003 (ip), vehicle: Klucel (hydroxypropylcellulose) (HPC) 87 % of control | dose: 50.0 mg/kg/injection, schedule: Q04DX003 (ip), vehicle: Klucel (hydroxypropylcellulose) (HPC) 91 % of control | [11] 91 % of control
